Assay results published in BindingDB's records for doi:10.1021/jm00168a025 (State University of New York, 1990).

Target: Squalene monooxygenase (Sus scrofa)
Assay: Inhibition of pig liver squalene epoxidase

## CC(C)=CCC/C(C)=C/CC/C(C)=C/CC/C=C(\C)CCCO
  IC50: 100 µM

## CC(C)=CCC/C(C)=C/CC/C(C)=C/CC/C=C(\C)CC/C=C(\C)CCCCO
  IC50: 4 µM

## CC(C)=CCC/C(C)=C/CC/C(C)=C/CCCO
  IC50: > 400 µM

## CC(C)=CCC/C(C)=C/CC/C(C)=C/CC/C=C(\C)CC/C=C(\C)CC/C=C(\C)CCCO
  IC50: > 400 µM

## CC(C)=CCC/C(C)=C/CC/C(C)=C/CC/C=C(\C)CC/C=C(\C)CCCO
  IC50: 4 µM
